Tests used:
[1] = tested on: ¹⁴C-Cholesterol Absorption; experiment: In vivo 14C-cholesterol absorption in normal rats; details: oral gavage, blood samples six hours later
Method: Representative compounds were further tested in vivo to establish the percent inhibition of cholesterol absorption. In this study, normal rats were dosed (oral gavage) with ¹⁴C-cholesterol plus the test compound. Blood samples taken exactly six hours later were analyzed and the percent inhibition of cholesterol absorption was calculated as shown in: Table II

[2] = tested on: acyl-coenzyme A: cholesterol acyltransferase; experiment: Inhibition of intracellular cholesterol esterification (ACAT), test procedure of Ross et al.; format: cell-based; details: for % Inhib, (Concentration - µM): 25 µM; for IC50: read-out: IC₅₀
Source text: The ability of the compounds of this invention to inhibit acyl-coenzyme A: cholesterol acyltransferase was established by initially showing that they inhibited intracellular cholesterol esterification by subjecting them to the standard experimental test procedure of Ross et al., J. Biol. Chem. 259 815 (1984). The results of these studies are presented in: Table I

plasma cholesterol = experiment: Cholesterol-cholic acid fed rat, decrease of plasma cholesterol; format: in vivo; details: 10 mg/kg, oral gavage just prior to and just following feeding, four days
Method: In addition, the product of Example 1 was studied in vivo in the cholesterol-cholic acid fed rat to determine the percent decrease of cholesterol in their plasma This study involves rats which are, prior to testing, trained for one week to eat over a four hour time period each day. Upon initiation of the experiment, the rats diet is supplemented with 1.0 percent cholesterol and 0.25 percent cholic acid. The rats are dosed with the test compound by oral gavage just prior to and just following the four hour feeding period. This is repeated for four days. On the fifth day, the rats are sacrificed and the total plasma cholesterol content is determined. The percent decrease in elevated plasma cholesterol levels is calculated in comparison with […] controls.

Structure (SMILES)	% Inhibition of Absorption ([1]; dose 3 mg/kg) [%]	% Inhib, (Concentration - µM) [2]	IC50 [2] [µM]	% Inhibition of Absorption ([1]; dose 10 mg/kg) [%]	decrease in plasma cholesterol (plasma cholesterol) [%]
CCCCCCN(Cc1ccnc2ccccc12)C(Nc1ccc(OC)cc1OC)=C1C(=O)OC(C)(C)OC1=O [Example 2, 5-[[(2,4-Dimethoxyphenyl)amino][hexyl(4-quinolinylmethyl)amino]methylene]-2,2-dimethyl-1,3-dioxane-4,6-dione]	2				
CCCCCCN(Cc1ccc2ccccc2n1)C(Nc1ccc(OC)cc1OC)=C1C(=O)OC(C)(C)OC1=O [Example 4, 5-[[(2,4-Dimethoxyphenyl)amino][hexyl(2-quinolinylmethyl)amino]methylene]-2,2-dimethyl-1,3-dioxane-4,6-dione]		72 (25) %	5.16		
CCCCCCCN(Cc1ccc(CC(C)(C)C)s1)C(Nc1ccc(OC)cc1OC)=C1C(=O)OC(C)(C)OC1=O [Example 16, 5-[[(2,4-Dimethoxyphenyl)amino][[[5-(2,2-dimethylpropyl)-2-thienyl]methyl]heptylamino]-methylene]-2,2-dimethyl-1,3-dioxane-4,6-]		94 (25) %	2.96		
CCCCCC(C)N(Cc1ccc2ccccc2n1)C(Nc1ccc(OC)cc1OC)=C1C(=O)OC(C)(C)OC1=O (stereo not drawn) [Example 5]		90 (25) %	2.42		
CCCCCCC(C)N(Cc1ccc(CC(C)(C)C)s1)C(Nc1cc(C(C)(C)C)c(O)c(C(C)(C)C)c1)=C1C(=O)OC(C)(C)OC1=O (stereo not drawn) [Example 19, 5-[[[3,5-Bis(1,1-dimethylethyl)-4-hydroxyphenyl]amino][[[5-(2,2-dimethylpropyl)-2-thienyl]methyl](1-methylheptyl)amino]methylene]-2,2-dimethyl-1,3-dioxane-4,6-dione]			0.64		
CCCCCCN(Cc1cccnc1)C(Nc1ccc(OC)cc1OC)=C1C(=O)OC(C)(C)OC1=O [Example 14, 5-[(2,4-Dimethoxy-phenylamino)-[hexyl-(pyridin-3-ylmethyl)-amino]-methylene]-2,2-dimethyl-[1,3]-dioxane-4,6-dione]		18 (25) %			
COc1ccc(NC(NC(c2ccc(CC(C)(C)C)s2)C2CCCCC2)=C2C(=O)OC(C)(C)OC2=O)c(OC)c1 (stereo not drawn) [Example 20, 5-[[[Cyclohexyl-[5-(2,2-dimethylpropyl)-2-thienyl]methyl]amino]-[(2,4-dimethoxyphenyl)amino]-methylene]-2,2-dimethyl-1,3-dioxane-4,6-dione]		95 (25) %			
CCCCCC(C)N(Cc1ccnc2ccccc12)C(Nc1cc(C(C)(C)C)c(O)c(C(C)(C)C)c1)=C1C(=O)OC(C)(C)OC1=O (stereo not drawn) [Example 8, 5-[[[3,5-Bis(1,1-dimethylethyl)-4-hydroxyphenyl]amino][(1-methylhexyl)(4-quinolinylmethyl)amino]methylene]-2,2-dimethyl-1,3-dioxane-4,6-dione]		97 (25) %	1.65		
CCCCCCN(Cc1ccccn1)C(Nc1cc(C(C)(C)C)c(O)c(C(C)(C)C)c1)=C1C(=O)OC(C)(C)OC1=O [Example 12, 5-[(3,5-Di-tert-butyl-4-hydroxy-phenylamino)-(hexyl-(pyridin-2-ylmethyl)-amino]-methylene]-2,2-dimethyl-[1,3]-dioxane-4,6-dione]		92 (25) %	4.11	65	
CCCCCCN(Cc1ccncc1)C(Nc1ccc(OC)cc1OC)=C1C(=O)OC(C)(C)OC1=O [Example 11]		24 (25) %			
CCCCCCN(Cc1cc2ccccc2s1)C(Nc1ccc(OC)cc1OC)=C1C(=O)OC(C)(C)OC1=O [Example 22, 5-[[(Benzo[b]thiophen-2-ylmethyl)-hexyl-amino]-(2,4-dimethoxyphenylamino)-methylene]-2,2-dimethyl-[1,3]dioxane-4,6-]		94 (25) %	0.62		
CCCCCCN(Cc1ccc2ccccc2n1)C(Nc1cc(C(C)(C)C)c(O)c(C(C)(C)C)c1)=C1C(=O)OC(C)(C)OC1=O [Example 3, 5-[[[3,5-Bis(1,1-dimethylethyl)-4-hydroxyphenyl]amino][hexyl(2-quinolinylmethyl)amino]methylene]-2,2-dimethyl-1,3-dioxane-4,6-dione]	11	55 (25) %	2.33		
CCCCCC(C)N(Cc1ccc(CC(C)(C)C)s1)C(Nc1ccc(OC)cc1OC)=C1C(=O)OC(C)(C)OC1=O (stereo not drawn) [Example 18, 5-[[(2,4-Dimethoxyphenyl)amino][[[5-(2,2-dimethylpropyl)-2-thienyl]methyl](1-methylhexyl)-amino]methylene]-2,2-dimethyl-1,3-dioxane-4,6-dione]		97 (25) %			
CCCCCC(C)N(Cc1cc2ccccc2s1)C(Nc1cc(C(C)(C)C)c(O)c(C(C)(C)C)c1)=C1C(=O)OC(C)(C)OC1=O (stereo not drawn) [Example 24, 5-[[Benzo[b]thiophen-2-ylmethyl-(1-methyl-hexyl)-amino]-(3,5-di-tert-butyl-4-hydroxy-phenylamino)methylene]-2,2-dimethyl-[1,3]dioxane-4,6-dione]		98 (25) %	0.31		
CCCCCCN(Cc1cnc2ccccc2c1)C(Nc1cc(C(C)(C)C)c(O)c(C(C)(C)C)c1)=C1C(=O)OC(C)(C)OC1=O [Example 9, 5-[[[3,5-Bis(1,1-dimethylethyl)-4-hydroxyphenyl]amino][hexyl(3-quinolinylmethyl)amino]methylene]-2,2-dimethyl-1,3-dioxane-4,6-dione]		98 (25) %	1.35		
CCCCCCN(Cc1csc2ccccc12)C(Nc1cc(C(C)(C)C)c(O)c(C(C)(C)C)c1)=C1C(=O)OC(C)(C)OC1=O [Example 21, 5-[(Benzo[b]thiophen-3-ylmethyl-hexyl-amino)-(3,5-di-tert-butyl-4-hydroxy-phenylamino)-methylene]-2,2-dimethyl-[1,3]dioxane-4,6-dione]		98 (25) %	0.38		
CCCCCCCN(Cc1ccc(CC(C)(C)C)s1)C(Nc1cc(C(C)(C)C)c(O)c(C(C)(C)C)c1)=C1C(=O)OC(C)(C)OC1=O [Example 17, 5-[[[3,5-Bis(1,1-dimethylethyl)-4-hydroxyphenyl]amino][[[5-(2,2-dimethylpropyl)-2-thienyl]methyl]heptylamino]methylene]-2,2-dimethyl-1,3-dioxane-4,6-dione]			0.7		
CCCCCC(C)N(Cc1cc2ccccc2s1)C(Nc1ccc(OC)cc1OC)=C1C(=O)OC(C)(C)OC1=O (stereo not drawn) [Example 23, 5-[[Benzo[b]thiophen-2-ylmethyl-(1-methyl-hexyl)-amino]-(2,4-dimethoxy-phenylamino)-methylene]-2,2-dimethyl-[1,3]dioxane-4,6-dione]		97 (25) %	0.35		
CCCCCCN(Cc1ccccn1)C(Nc1ccc(OC)cc1OC)=C1C(=O)OC(C)(C)OC1=O [Example 13, 5-[(2,4-Dimethoxyphenylamino)-[hexyl-(pyridin-2-ylmethyl)-amino]-methylene]-2,2-dimethyl-[1,3]-dioxane-4,6-dione]		26 (25) %			
CCCCCC(C)N(Cc1ccc2ccccc2n1)C(Nc1cc(C(C)(C)C)c(O)c(C(C)(C)C)c1)=C1C(=O)OC(C)(C)OC1=O (stereo not drawn) [Example 6]		95 (25) %	1.55		
CCCCCCN(Cc1cccnc1)C(Nc1cc(C(C)(C)C)c(O)c(C(C)(C)C)c1)=C1C(=O)OC(C)(C)OC1=O [Example 15, 5-[(3,5-Di-tert-butyl-4-hydroxy-phenylamino)-[hexyl-(pyridin-3-ylmethyl)-amino]-methylene]-2,2-dimethyl-1,3-dioxane-4,6-dione]	48	97 (25) %	3.9		
CCCCCCN(Cc1ccnc2ccccc12)C(Nc1cc(C(C)(C)C)c(O)c(C(C)(C)C)c1)=C1C(=O)OC(C)(C)OC1=O [Example 1, 5-[[[3,5-Bis(1,1-dimethylethyl)-4-hydroxyphenyl]amino][hexyl(4-quinolinylmethyl)amino]methylene]-2,2-dimethyl-1,3-dioxane-4,6-dione]		69 (25) %	2.96	72	50
CCCCCC(C)N(Cc1ccnc2ccccc12)C(Nc1ccc(OC)cc1OC)=C1C(=O)OC(C)(C)OC1=O (stereo not drawn) [Example 7, 5-[[(2,4-Dimethoxyphenyl)amino][(1-methylhexyl)(4-quinolinylmethyl)amino]methylene]-2,2-dimethyl-1,3-dioxane-4,6-dione]		51 (25) %	9.41		
CCCCCCN(Cc1ccncc1)C(Nc1cc(C(C)(C)C)c(O)c(C(C)(C)C)c1)=C1C(=O)OC(C)(C)OC1=O [Example 10, 5-[(3,5-Di-tert-butyl-4-hydroxy-phenylamino)-(hexyl-(pyridin-4-ylmethyl)-amino)-methylene]-2,2-dimethyl-1,3-dioxane-4,6-dione]		94 (25) %	5.82		

— patent publication EP0531119B1, “N,N',N'-trisubstituted -5-bis-aminomethylene-1,3-dioxane-4,6-dione inhibitors of acyl-CoA: cholesterol-acyl transferase” (AMERICAN HOME PRODUCTS CORPORATION, priority 1991, dated 1993)
